Columns and labels:
CCR2 receptor = molecular target: T1, CCR2 receptor (Homo sapiens, UniProt P41597); test: Inhibition of MCP-1 induced Ca-flux in human THP-1 cells; assay type: cell-based; details: inhibition of specific MCP-1 (10^-7 M hMCP-1) induced Ca2+ flux in human THP-1 cells; pIC50 = -log IC50 (molar)
T1 construct: host or cells: THP-1 human monocytic cell line
T1 sequence (P41597 1-360 isoform P41597-2): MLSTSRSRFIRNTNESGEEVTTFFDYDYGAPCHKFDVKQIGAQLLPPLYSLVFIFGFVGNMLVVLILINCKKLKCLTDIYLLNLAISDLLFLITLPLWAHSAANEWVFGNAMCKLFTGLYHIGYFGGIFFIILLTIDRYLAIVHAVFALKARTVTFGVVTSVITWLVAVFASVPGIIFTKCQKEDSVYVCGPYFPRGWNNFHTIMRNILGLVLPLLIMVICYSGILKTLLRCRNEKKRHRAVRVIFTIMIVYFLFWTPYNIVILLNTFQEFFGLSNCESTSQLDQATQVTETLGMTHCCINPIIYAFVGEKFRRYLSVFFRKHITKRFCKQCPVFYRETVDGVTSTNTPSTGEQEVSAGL
Method: C. Pharmacological Example Inhibition of MCP-1 Induced Ca-flux in Human THP-1 Cells
MCP-1 binding to the CCR2 receptor induces a rapid and transient intracellular release of Ca^2+ (secondary messenger) in several cell lines (Charo et al, PNAS 1994). Free Ca^2+ levels can be measured using a Ca^2+ sensitive dye. When the CCR2 receptor is blocked with a CCR2 receptor antagonist, the MCP-1 induced release of Ca^2+ is inhibited.
Human THP-1 cells (monocytic cell line, ATCC TIB-202) were cultured in RPMI 1640 medium supplemented with 10% fetal calf serum (FCS), 1% L-Glutamine, penicillin (50 U/ml) and streptomycin (50 μg/ml) (all GIBCO BRL, Gent). After centrifugation, cells were loaded for 30 minutes with the Ca^2+ sensitive fluorescent dye Fluo-3 AM (Molecular Probes, Leiden, Netherlands) (2 million cells/ml in RPMI medium containing 4 μM Fluo-3 AM, 20 mM HEPES, 0.1% Bovine Serum Albumin (BSA) and 5 mM probenecid). Excess dye was removed by 3-fold washing with buffer (5 mM HEPES, 140 mM NaCl, 1 mM MgCl2, 5 mM KCl, 10 mM glucose, 2.5 mM probenecid, 1.25 mM CaCl2, 0.1% BSA; all further incubations were done in this buffer). Cells were plated at a density of 150 000 cells/well in dark-wall 96-well plates (Costar, Cambridge, Mass.) and sedimented by centrifugation (1 minute). The cells were pre-incubated for 20 minutes with test compound. Then, 10^−7 M hMCP-1 (Bachem, Bubendorf, Switserland) was added. Changes in intracellular free Ca^2+ concentration were measured using the Fluorescent Imaging Plate Reader (FLIPR, Molecular Devices, Munchen, Germany). Fluorescence was recorded every second from 10 seconds before the addition of the MCP-1 till 2 minutes after the addition (first minute: 60 records with 1 second intervals, second minute 20 records with 3 second intervals).
The maximal fluorescence obtained during this time frame was used for further calculations.
Table 4 reports pIC50 values obtained in the above-described test for compounds of formula (I). pIC50 defines −log IC50 wherein IC50 is the molar concentration of the test compound which inhibits 50% of specific MCP-1 induced Ca^2+ flux.

Row | Compound | IC50 (CCR2 receptor) [nM] | melting point [°C]
1 | CC(c1ccc(Cl)c(Cl)c1)n1c(C(N)=O)c[nH]c1=S (centres unmarked) [Compound 54] | 1100 | –
2 | COC(=O)c1[nH]c(=S)n(C(C)c2ccc(Cl)c(Cl)c2)c1C(=O)OC (centres unmarked) [Compound 55] | 12.6 | –
3 | COC(=O)c1[nH]c(=S)n(C(c2ccccc2)c2ccc(Cl)c(Cl)c2)c1C(=O)OC (centres unmarked) [Compound 56] | 203 | –
4 | CCC(c1ccc(Br)c(Br)c1)n1c(C(N)=O)c(C(N)=O)[nH]c1=S (centres unmarked) [Compound 57] | 168 | –
5 | CCC(c1ccc(Cl)c(Cl)c1)n1c(C(N)=O)cnc1S (centres unmarked) [Compound 59] | 43.4 | –
6 | CCC(c1ccc(F)c(C(F)(F)F)c1)n1c(C(=O)OCCO)cnc1S (centres unmarked) [Compound 61] | 229 | –
7 | CCC(c1ccc(F)c(C(F)(F)F)c1)n1c(C(=O)OCC(=O)N(CC)CC)c[nH]c1=S (centres unmarked) [Compound 62] | 1020 | –
8 | CCC(c1ccc(Cl)c(Cl)c1)n1cc(C(=O)OCCO)[nH]c1=S (centres unmarked) [Compound 63] | 1020 | –
9 | CCC(c1ccc(F)c(C(F)(F)F)c1)n1c(C(=O)O)c[nH]c1=S (centres unmarked) [Compound 67] | 2340 | –
10 | CCC(c1ccc(Cl)c(Cl)c1)n1c(S)nc(C(=O)O)c1C(=O)OC (centres unmarked) [Compound 68] | 841 | –
11 | CCCC(c1ccc(Cl)c(Cl)c1)n1c(C(=O)NC)c(C(=O)NC)[nH]c1=S (centres unmarked) [Compound 69] | 394 | –
12 | CCC(c1ccc(Cl)c(Cl)c1)n1c(C#N)c(C(=O)NC)[nH]c1=S (centres unmarked) [Compound 70] | 257 | –
13 | COC(=O)c1[nH]c(=S)n(C(c2ccc(Cl)c(Cl)c2)C2CCCCC2)c1C(=O)OC (centres unmarked) [Compound 73] | 440 | –
14 | CCC(c1ccc(Br)c(Br)c1)n1c(C(=O)O)c[nH]c1=S (centres unmarked) [Compound 74] | 3390 | –
15 | CCOC(=O)c1c(C)[nH]c(=S)n1C(CC)c1ccc(Cl)c(Cl)c1 (centres unmarked) [Compound 75] | 263 | –
16 | CCC(c1ccc(Br)c(Br)c1)n1c(C(=O)OC)cnc1S (centres unmarked) [Compound 76] | 257 | –
17 | O=c1[nH][nH]c(=O)c2c1[nH]c(=S)n2C(c1ccc(Cl)c(Cl)c1)C1CC1 (centres unmarked) [Compound 77] | 331 | –
18 | CCC(c1ccc(Cl)c(Cl)c1)n1c(S)nc(C(=O)OC(C)(C)C)c1C#N (centres unmarked) [Compound 78] | 813 | 172.7 to 175.2
19 | COC(=O)c1cnc(S)n1C(C)(C)c1ccc(Cl)c(Cl)c1 [Compound 80] | 4790 | –
20 | CCC(c1ccc(Cl)c(Cl)c1)n1c(C(C)=O)c[nH]c1=S (centres unmarked) [Compound 81] | 132 | –

Row | Compound | IC50 (CCR2 receptor) [nM] | melting point [°C]
21 | CCC(c1ccc(Cl)c(Cl)c1)n1c(S)nc(CO)c1C(=O)OC (centres unmarked) [Compound 85] | 153 | –
22 | CCC(c1ccc(Cl)c(Cl)c1)n1c(S)nc(C(N)=O)c1C(=O)OC (centres unmarked) [Compound 86] | 49.9 | –
23 | CCC(c1ccc(Cl)c(Cl)c1)n1c(S)nc(C(=O)NC)c1C(=O)OC (centres unmarked) [Compound 87] | 33.1 | –
24 | CCC(c1ccc(Cl)c(Cl)c1)n1c(S)nc(C(=O)O)c1C#N (centres unmarked) [Compound 88] | 174 | –
25 | CCC(c1ccc(Cl)c(Cl)c1)n1c(S)nc(COC)c1C(=O)OC (centres unmarked) [Compound 89] | 107 | –
26 | COC(=O)c1c(C(N)=O)[nH]c(=S)n1C(C)c1ccc(Cl)c(Cl)c1 (centres unmarked) [Compound 90] | 133 | –
27 | CC(c1ccc(Cl)c(Cl)c1)n1cc(C(N)=O)[nH]c1=S (centres unmarked) [Compound 91] | 8130 | –
28 | COCC(c1ccc(Cl)c(Cl)c1)n1c(C(=O)OC)cnc1S (centres unmarked) [Compound 94] | 305 | –
29 | CCC(c1ccc(Cl)c(Cl)c1)n1c(C(=O)NN)c[nH]c1=S (centres unmarked) [Compound 95] | 245 | –
30 | CCC(c1ccc(Cl)c(Cl)c1)n1c(C(=O)OC)c(C(=O)NNC(C)=O)[nH]c1=S (centres unmarked) [Compound 96] | 186 | –
31 | CC(c1ccc(Cl)c(Cl)c1)n1c(C(N)=O)c(C(N)=O)[nH]c1=S (centres unmarked) [Compound 98] | 2040 | –
32 | CCC(c1ccc(C)c(C)c1)n1c(C(=O)OC)c(C(=O)OC)[nH]c1=S (centres unmarked) [Compound 99] | 343 | –
33 | COCC(c1ccc(Cl)c(Cl)c1)n1c(C(=O)OC)c(C(=O)OC)[nH]c1=S (centres unmarked) [Compound 100] | 32.4 | –
34 | COCC(c1ccc(Cl)c(Cl)c1)n1c(C(N)=O)c[nH]c1=S (centres unmarked) [Compound 104] | 85.7 | –
35 | CCC(c1ccc(Cl)c(Cl)c1)n1c(C(=O)NCCO)c[nH]c1=S (centres unmarked) [Compound 105] | 130 | –
36 | CCC(c1ccc(Cl)c(Cl)c1)n1c(C(=O)N(C)OC)c[nH]c1=S (centres unmarked) [Compound 106] | 1780 | –
37 | CCC(c1ccc(Cl)c(Cl)c1)n1c(S)nc(C(=O)NC)c1C(=O)NC (centres unmarked) [Compound 107] | 355 | –
38 | CCC(c1ccc(Cl)c(Cl)c1)n1c(C(=O)OC)c(C(=O)N2CCCCC2)[nH]c1=S (centres unmarked) [Compound 108] | 112 | –
39 | CCC(c1ccc(Cl)c(Cl)c1)n1c(C(=O)OC)c(C(=O)N2CCOCC2)[nH]c1=S (centres unmarked) [Compound 109] | 1150 | –
40 | CCC(c1ccc(Cl)c(Cl)c1)n1c(C(=O)OC)c(C(=O)NCCO)[nH]c1=S (centres unmarked) [Compound 110] | 112 | –

Row | Compound | IC50 (CCR2 receptor) [nM] | melting point [°C]
41 | CCC(c1ccc(Cl)c(Cl)c1)n1c(C(N)=O)c(COC)[nH]c1=S (centres unmarked) [Compound 113] | 240 | –
42 | CCC(c1ccc(Cl)c(Cl)c1)n1c(C(=O)NC)c(COC)[nH]c1=S (centres unmarked) [Compound 114] | 1780 | –
43 | CCC(c1ccc(Cl)c(Cl)c1)n1c(C(=O)NCCO)c(COC)[nH]c1=S (centres unmarked) [Compound 115] | 1200 | –
44 | CCC(c1cc(F)cc(F)c1)n1c(C(=O)OC)cnc1S (centres unmarked) [Compound 118] | 8320 | –
45 | CCC(c1ccc(Cl)c(Cl)c1)n1c(C(=O)NNC(C)=O)c[nH]c1=S (centres unmarked) [Compound 119] | 871 | –
46 | CCC(c1ccc(Cl)c(Cl)c1)n1c(C(=O)NNC=O)c[nH]c1=S (centres unmarked) [Compound 120] | 1050 | –
47 | CCC(c1ccc(Cl)cc1)n1c(C(=O)OC)cnc1S (centres unmarked) [Compound 123] | 4680 | –
48 | CCC(c1cc(F)cc(F)c1)n1c(C(=O)OC)c(C(=O)OC)[nH]c1=S (centres unmarked) [Compound 124] | 64.6 | –
49 | CCC(c1cc(Cl)cc(Cl)c1)n1c(C(=O)OC)c(C(=O)OC)[nH]c1=S (centres unmarked) [Compound 130] | 1660 | –
50 | CCC(c1cc(F)c(F)c(F)c1)n1c(C(=O)OC)c[nH]c1=S (centres unmarked) [Compound 135] | 4270 | –
51 | CCC(c1ccc(F)c(F)c1)n1c(C(=O)OC)c(C(=O)OC(C)(C)C)[nH]c1=S (centres unmarked) [Compound 137] | 2510 | –
52 | CCC(c1ccc(Br)c(Br)c1)n1c(C(N)=O)c[nH]c1=S (centres unmarked) [Compound 138] | 176 | –
53 | CCC(c1ccc(F)c(F)c1)n1c(C(=O)OC)c(C(N)=O)[nH]c1=S (centres unmarked) [Compound 142] | 58.9 | –
54 | CCC(c1cc(F)c(F)c(F)c1)n1c(C(N)=O)c[nH]c1=S (centres unmarked) [Compound 143] | 166 | –
55 | CCC(c1cc(F)c(F)c(F)c1)n1c(C(=O)OC)c(C(=O)OC)[nH]c1=S (centres unmarked) [Compound 148] | 33.5 | –
56 | CCCC(c1ccc(Cl)c(Cl)c1)n1c(C(=O)OC)c(C(N)=O)[nH]c1=S (centres unmarked) [Compound 149] | 32.4 | –
57 | COC(=O)c1[nH]c(=S)n(C(c2ccc(Cl)c(Cl)c2)c2ccc(Cl)c(Cl)c2)c1C(=O)OC [Compound 150] | 468 | –
58 | CCC(=O)c1c[nH]c(=S)n1C(CC)c1ccc(Cl)c(Cl)c1 (centres unmarked) [Compound 151] | 299 | –

Reference: patent US7511068B2, “Mercaptoimidazoles as CCR2 receptor antagonists” (Janssen Pharmaceutica, N.V., priority 2003, dated 2009)
